Measured values from ChEMBL document CHEMBL3044540, “Synthesis and Fungicidal Activity of New 6-Alkyl-2-alkylamino-4H-1, 3, 2-benzodioxaphosphorin 2-Sulfides” (1998).

What was measured:
Format in all cases: functional
Athelia rolfsii [1] = assay: Antifungal activity against Athelia rolfsii assessed as growth inhibition at 100 ppm by agar dilutopn method; conditions: Agroathelia rolfsii; read-out: GI
Pythium [2] = assay: Antifungal activity against Pythium sp. assessed as growth inhibition at 10 ppm by agar dilution method; conditions: read-out: GI
Athelia rolfsii [3] = assay: Antifungal activity against Athelia rolfsii assessed as growth inhibition at 10 ppm by agar dilutopn method; conditions: Agroathelia rolfsii; read-out: GI
Pythium [4] = assay: Antifungal activity against Pythium sp. assessed as growth inhibition at 100 ppm by agar dilution method; conditions: read-out: GI

Compound	inhibition of growth at 100 ppm (Athelia rolfsii [1])	inhibition of growth at 10 ppm (Pythium [2])	inhibition of growth at 10 ppm (Athelia rolfsii [3])	inhibition of growth at 100 ppm (Pythium [4])
CCCCNP1(=S)OCc2cc(CCCC)ccc2O1 (centres undefined)	70%	5%	44%	33%
CCCCc1ccc2c(c1)COP(=S)(NCC(C)C)O2 (centres undefined)	48%	8%	22%	28%
CCCCc1ccc2c(c1)COP(=S)(NC(C)CC)O2 (centres undefined)	47%	33%	24%	38%
CCCNP1(=S)OCc2cc(C(C)CC)ccc2O1 (centres undefined)	77%	14%	48%	48%
CCC(C)c1ccc2c(c1)COP(=S)(NC(C)C)O2 (centres undefined)	75%	0%	28%	48%
CCCCNP1(=S)OCc2cc(C(C)CC)ccc2O1 (centres undefined)	63%	4%	39%	11%
CCC(C)c1ccc2c(c1)COP(=S)(NCC(C)C)O2 (centres undefined)	63%	0%	31%	14%
CCC(C)NP1(=S)OCc2cc(C(C)CC)ccc2O1 (centres undefined)	37%	0%	0%	7%
CCCNP1(=S)OCc2cc(CCC)ccc2O1 (centres undefined)	92%	66%	63%	87%
CCCc1ccc2c(c1)COP(=S)(NC(C)C)O2 (centres undefined)	81%	59%	57%	80%
CCCCNP1(=S)OCc2cc(CCC)ccc2O1 (centres undefined)	76%	54%	66%	65%
CCCc1ccc2c(c1)COP(=S)(NCC(C)C)O2 (centres undefined)	79%	44%	59%	57%
CCCc1ccc2c(c1)COP(=S)(NC(C)CC)O2 (centres undefined)	64%	44%	44%	59%
CCCNP1(=S)OCc2cc(C(C)C)ccc2O1 (centres undefined)	90%	57%	58%	75%
CC(C)NP1(=S)OCc2cc(C(C)C)ccc2O1 (centres undefined)	90%	53%	58%	82%
CCCCNP1(=S)OCc2cc(C(C)C)ccc2O1 (centres undefined)	70%	29%	56%	49%
CC(C)CNP1(=S)OCc2cc(C(C)C)ccc2O1 (centres undefined)	76%	14%	49%	18%
CCC(C)NP1(=S)OCc2cc(C(C)C)ccc2O1 (centres undefined)	68%	11%	34%	43%
CCCCc1ccc2c(c1)COP(=S)(NCCC)O2 (centres undefined)	71%	54%	55%	72%
CCCCc1ccc2c(c1)COP(=S)(NC(C)C)O2 (centres undefined)	59%	54%	42%	57%
CC(C)OP(=O)(OC(C)C)SCc1ccccc1 [IPROBENFOS]	100%	42%	69%	89%
